Source: patent US20240300975A1, “DIMETHYL-SUBSTITUTED THIAZOLOLACTAM COMPOUND AND USE THEREOF” (D3 Bio (Wuxi) Co., Ltd., priority 2021, published 2024)
pIC50: −log10 of the molar value.

Tests used:
human plasma albumin = assay: Plasma protein binding (PPB), human plasma; assay type: in vitro ADME; conditions: ultracentrifugation, 37° C., 4 h
Procedure: (§1) The binding degree of the assay compound to human/mouse/rat/canine/monkey plasma albumin was studied.
(§2) • 1) Matrix preparation: on the day of the assay, plasma was thawed in cold water and centrifuged at 3220 rpm for 5 min to remove all clots. The pH of the resulting plasma was measured and adjusted to 7.4±0.1 using 1% phosphoric acid or 1N sodium hydroxide as needed. • 2) Dilution procedure for the assay compound: the assay compound was dissolved in dimethyl sulfoxide (DMSO) to prepare stock solutions with concentrations of 10 mM and 2 mM, respectively. A 40 μM working solution was prepared by diluting 2 μL of stock solution (2 mM) with 98 μL of DMSO. A 400 μM working solution of the control compound was prepared by diluting 10 μL of stock solution with 240 μL of DMSO. The working solution of the compound (5 μL) was mixed well with a blank matrix (995 μL) at a ratio of 1:200 to prepare a loading matrix.
(§3) • a) An equal volume of 30 μL of loading matrix (n=2) was transferred to a sample collection plate to prepare a time 0 (TO) sample for residue determination. The sample was immediately matched with the corresponding blank buffer to a final volume of 60 μL, and the volume ratio of plasma to buffer in each well was 1:1. […] The mixture was centrifuged at 4000 rpm for 20 min and 100 μL of supernatant from each sample was analyzed by LC-MS/MS.

ERK2 = ERK2 (Homo sapiens (Human), UniProt P28482); assay: In vitro ERK2 kinase activity assay (33P-ATP, filter-binding); assay type: biochemical
Procedure: The ability of compounds to inhibit ERK1 and ERK2 kinase activity was measured.
20 mM Hepes (pH 7.5), 10 mM MgCl2, 1 mM ethylenebis(oxyethylenenitrilo)tetraacetic acid (EGTA), 0.02% Brij35, 0.02 mg/mL bovine serum albumin (BSA), 0.1 mM Na3VO4, 2 mM dithiothreitol (DTT), 1% DMSO.
The assay compound was dissolved in 100% DMSO to prepare a stock solution of specific concentration. The compound was serially diluted in DMSO solution using Integra Viaflo Assist smart pipette.
• a) The substrate MBP was prepared in freshly prepared reaction buffer; • b) ERK1 (or ERK2) kinase was added to the above-mentioned MBP solution and mixed gently; • c) The compound dissolved in 100% DMSO was added to the kinase reaction system using ultrasound technology (Echo550; nanoliter range), and the mixture was incubated at room temperature for 20 minutes; • d)^33P-ATP (specific concentration of […]) was added to the reaction system, and the reaction was started at this time; • e) The mixture was incubated at room temperature for 2 hours; • f) The amount of radioactivity was detected by filter-binding method; • g) ERK1 (or ERK2) kinase activity was calculated as the ratio of the remaining kinase activity in the assay sample to the kinase activity of the control group (treated by DMSO).
Curve was fitted using Prism (GraphPad software) and IC50 values were calculated.

[1] = test system: human melanoma A375 cells; assay: In vivo efficacy in mouse model of human melanoma A375; conditions: for TGI: PO, BID, day 21, A375 xenograft nude mouse
Procedure: The anti-tumor effect of WX001 was evaluated using a subcutaneous xenograft tumor model of human melanoma A375 cells in nude mouse.
• Species: mouse • Strain: BALB/c nude mouse • Age: 6-8 weeks old • Gender: female • Body weight: 18-22 grams • Supplier: Vital River Laboratory Animal Technology Co., Ltd.
• 1) Assay cells and culture: Human melanomaA375 cells were cultured in monolayer in vitro. The culture conditions were DMEM medium plus 10% fetal bovine serum, and a 37° C. 5% CO2 incubator. Routine digestion with trypsin-EDTA was performed twice a week for passage. When the cell saturation was 80%-90% and the amount reached the requirement, the cells were harvested, counted, and inoculated; • 2) Tumor tissue inoculation and grouping: 0.1 mL (5×10^5) of A375 cells were subcutaneously inoculated into the right armpit of each mouse. When the average tumor volume reached 170 mm^3, the animals were randomly divided into 4 groups and the administration was started.
• 3) Daily observation of assay animals: The development of this assay protocol and any modifications were evaluated and approved by the Institutional Animal Care and Use Committee (IACUC). The use and welfare of assay animals were carried out in accordance with the regulations of the Association for Assessment and Accreditation of Laboratory Animal Care (AAALAC). Animals were monitored daily for health and death. Routine examinations included observation of tumor growth and the effects of drug treatment on the animals' daily behavior such as behavioral activities, food and water intake (visual inspection only), weight changes (weight measurements twice a week), appearance signs or other abnormalities. Animal deaths and side effects in each group were recorded based on the number of animals in each group.
• a) Vehicle group: 5% DMSO+95% (20% HP-β-CD). • b) Assay compound group: A quantitative amount of the assay compound was weighed in a formulation bottle. A corresponding volume of DMSO was added and then the mixture was vortexed to obtain a clear solution. A corresponding volume of 20% HP-β-CD was added and then the mixture was vortexed to obtain a homogeneous suspension.
• a) Tumor diameter was measured twice a week with a vernier caliper. The calculation formula of tumor volume was: TV=1/2×a×b^2, wherein a and b represent the long and short diameters of tumor, respectively; • b) The tumor-inhibitory efficacy of the compound was evaluated by TGI (%). TGI (%) reflected the inhibition rate of tumor growth. TGI (%) was calculated as follows: TGI (%)={[1−(average tumor volume at the end of administration of a treatment group−average tumor volume at the beginning of administration of this treatment group)]/(average tumor volume at the end of treatment in a solvent control group−average tumor volume at the beginning of treatment in the solvent control group)}×100%.

monkey plasma albumin = assay: Plasma protein binding (PPB), monkey plasma; assay type: in vitro ADME; conditions: ultracentrifugation, 37° C., 4 h
Procedure: as §1, §2, §3

ERK2, sequence (P28482 whole entry): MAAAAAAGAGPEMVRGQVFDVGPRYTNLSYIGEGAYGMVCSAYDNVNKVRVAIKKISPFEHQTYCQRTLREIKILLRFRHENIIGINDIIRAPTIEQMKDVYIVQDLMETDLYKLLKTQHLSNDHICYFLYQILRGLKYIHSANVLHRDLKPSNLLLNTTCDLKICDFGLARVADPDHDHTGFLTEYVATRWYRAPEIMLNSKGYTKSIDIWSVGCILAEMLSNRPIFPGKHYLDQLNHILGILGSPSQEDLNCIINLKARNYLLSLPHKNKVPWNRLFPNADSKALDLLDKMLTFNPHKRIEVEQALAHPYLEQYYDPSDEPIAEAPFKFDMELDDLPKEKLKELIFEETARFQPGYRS

Cc1cccc(CN2C(=O)c3nc(-c4nc(Nc5ccnn5C)ncc4C)sc3C2(C)C)n1 [WX001]
Plasma protein binding rate (unbound %) (human plasma albumin): 6.1% | pIC50 (ERK2): 9.31 | TGI ([1]; 5 mg/kg): 36% | TGI ([1]; 10 mg/kg): 81% | TGI ([1]; 20 mg/kg): 104% | tolerance ([1]; 5, 10, 20 mg/kg PO BID, during the administration): the tolerance is good | body weight of animals ([1]; 5, 10, 20 mg/kg PO BID, to the 21st day): did not decrease significantly | Plasma protein binding rate (unbound %) (monkey plasma albumin): 2.6%
